Results taken from patent publication US20040005636A1, “Method for obtaining the binding affinities of a peptide library to a protein” (priority 2002, published 2004).
Read-outs that look alike come from different tables or passages of the source. Ends that are not written are not given here. Peptide text beside a SMILES is read from it. * marks the point of attachment. Fluorescein(5-NHCOCH2) = O=C(C*)Nc1ccc2c(c1)C(=O)OC21c2ccc(O)cc2Oc2cc(O)ccc21

T1: hTRβ-LBD (Homo sapiens, UniProt P10828)
T1 construct: The receptor ERα-LBD or TRβ-LBD, expressed using reported protocols; made in house
T1 sequence (P10828 217-461 limits assumed): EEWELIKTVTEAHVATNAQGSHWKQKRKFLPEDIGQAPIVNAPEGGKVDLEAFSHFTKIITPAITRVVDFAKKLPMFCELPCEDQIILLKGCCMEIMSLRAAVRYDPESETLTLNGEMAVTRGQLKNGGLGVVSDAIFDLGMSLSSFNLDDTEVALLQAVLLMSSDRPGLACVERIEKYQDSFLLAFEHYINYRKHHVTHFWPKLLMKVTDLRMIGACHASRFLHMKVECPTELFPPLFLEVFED

T2: hERα-LBD (Homo sapiens, UniProt P03372)
T2 construct: The receptor ERα-LBD or TRβ-LBD, expressed using reported protocols; made in house
T2 sequence (P03372 311-547 limits assumed): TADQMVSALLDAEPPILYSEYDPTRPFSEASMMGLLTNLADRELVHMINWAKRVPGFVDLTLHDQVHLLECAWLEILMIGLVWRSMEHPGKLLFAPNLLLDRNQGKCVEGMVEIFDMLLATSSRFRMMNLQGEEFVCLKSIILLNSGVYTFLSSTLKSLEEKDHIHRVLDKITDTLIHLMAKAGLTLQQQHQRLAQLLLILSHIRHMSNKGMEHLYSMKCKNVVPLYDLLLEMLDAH

T3: hERα-LBD (ligand binding domain of estrogen receptor α) (human, UniProt P03372 297-554)
T3 construct: Assayed with estradiol, diethylstilbestrol, genistein or tamoxifen present; the ligand is named under assay in each row
T3 sequence (looked up): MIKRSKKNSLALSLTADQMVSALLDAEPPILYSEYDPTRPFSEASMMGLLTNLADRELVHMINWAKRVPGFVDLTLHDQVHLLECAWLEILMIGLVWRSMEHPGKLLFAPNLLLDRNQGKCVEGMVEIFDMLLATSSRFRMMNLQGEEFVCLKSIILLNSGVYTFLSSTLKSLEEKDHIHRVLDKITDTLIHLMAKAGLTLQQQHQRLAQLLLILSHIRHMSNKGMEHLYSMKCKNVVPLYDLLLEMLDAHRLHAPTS

T4: hTRβ-LBD (ligand binding domain of thyroid hormone receptor β) (human, UniProt P10828 202-461)
T4 construct: Assayed with the small-molecule ligand T3 present
T4 sequence (looked up): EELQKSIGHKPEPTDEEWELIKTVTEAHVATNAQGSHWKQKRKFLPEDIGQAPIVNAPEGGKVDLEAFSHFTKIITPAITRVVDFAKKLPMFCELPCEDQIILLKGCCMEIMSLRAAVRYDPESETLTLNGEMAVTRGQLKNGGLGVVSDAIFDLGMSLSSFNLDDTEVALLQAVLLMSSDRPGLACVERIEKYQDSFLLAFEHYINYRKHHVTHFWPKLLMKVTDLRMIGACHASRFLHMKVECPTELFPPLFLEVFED


How the values were obtained:
[1] = biological target: T1, hTRβ-LBD; assay: Fluorescence polarization assay of coregulator peptide binding to TRβ-LBD; settings: for Kd: TRβ-LBD with ligand T3, 10 nM fluorescent peptide, mean of 2 independent assays in quadruplicate, AL = assay limits, read-out: Observed Kd (dissociation constants for p160 peptides for TRβ)
Description: (§1) The peptide library synthesized in Example 1 was assayed with ERα or TRβ receptor. Library members were kept at a constant concentration of 10 nM. A ligand was optionally added to the nuclear hormone receptor.
(§2) The receptor ERα-LBD or TRβ-LBD, expressed using reported protocols (for TR see, e.g., Darimont et al., Genes Dev., 12(21):3343-56, (1998); and for ER, see, e.g., Shiau et al., Cell, (1998), 95(7):927-937), was used. The concentration of protein varied between 0.001-20 μM in the following way. In 96 well plates, hTRβ-LBD or hERα-LBD was serially diluted from 40 μM to 0.002 μM in binding buffer (50 mM Sodium Phosphate, 150 mM NaCl, pH 7.2, 1 mM DTT, 1 mM EDTA, 0.01% NP40, 10% glycerol), containing 200 μM ligand (T3, for TRβ, or estradiol, diethylstilbestrol, genistein or tamoxifen for ERα).
(§3) Subsequently 10 μL of diluted protein was added to 10 μL of fluorescent coregulator peptide (20 nM) in 384-well plates yielding final protein concentrations of […] and 10 nM fluorescent peptide concentration. The samples were allowed to equilibriate for 30 minutes. Binding was then measured using fluorescence polarization (excitation λ at 485 nm, emission λ at 530 nm) on an Analyst AD (available from Molecular Devices).
One of the major potential perturbing phenomena in this assay is unexpected quenching or enhancement of fluorescence intensity. To control for this, both overall fluorescence intensity and fluorescence anisotropy for each sample were simultaneously monitored.
(§4) All experiments were carried out in quadruplicate, with each iteration containing the positive and negative controls, and 10-12 dose points. The data were then fit using Klotz plots to determine IC50 values using nonlinear regression analysis that fits the data to a modification of the model of Heyduk and Lee. (Heyduk et al., Proc. Natl. Acad. Sci., (1990), 1774; Heyduk et al., Nature, (1993), 364, 6437; Heyduk et al., Methods Enzymol., 274, 492. Further analysis was conducted using Hill and Scatchard plots to confirm number and homogeneity of binding sites as discussed hereinbelow.
FIGS. 1 to 3 illustrate the results of three different measurements of the binding affinity of selected members of the SRC peptide library to TRβ-LBD. FIG. 4 illustrates a Scatchard plot, which provides the Kd for the SRC2-2 peptide. FIG. 5 illustrates a Hill plot, which provides the Kd for the SRC2-2 peptide. Both the Scatchard and Hill plot correlate with the direct binding plots illustrated in FIGS. 1-3. The Scatchard data were best fit to a linear function, which indicates a single class of binding sites. The slope of the Hill plot is 1, which also indicates a single class of binding sites. Measured dissociation constants for binding of the SRC peptide library to TRβ are illustrated in Table 3. […]

[2] = biological target: T2, hERα-LBD; assay: Fluorescence polarization assay of coregulator peptide binding to ERα-LBD; settings: ERα-LBD in the presence of estradiol; read-out: Dissociation constant for ERα, Estradiol
Description: as §1, §2, §3, §4
FIG. 6 illustrates direct binding of SRC2-2 to ERα-LBD in the presence of the ligands estradiol, diethylstilbestrol and genistein. […] Measured dissociation constants for binding of members of the SRC peptide library to ERα, in the presence of 3 different ligands, are illustrated in Table 4 wherein the binding units are μM. Table 5 illustrates a comparison of binding constants (μM) for SRC peptides with the TRβ receptor in the presence of thyroid hormone T3, and the ERα receptor in the presence of estradiol.

[3] = biological target: T1, hTRβ-LBD; settings: cited from earlier work
[4] = biological target: T3, hERα-LBD (ligand binding domain of …); assay: fluorescence polarization, labelled peptide 10 nM, hERα-LBD titrated, genistein present
Description: (§5) The concentration of protein varied between 0.001-20 μM in the following way. In 96 well plates, hTRβ-LBD or hERα-LBD was serially diluted from 40 μM to 0.002 μM in binding buffer (50 mM Sodium Phosphate, 150 mM NaCl, pH 7.2, 1 mM DTT, 1 mM EDTA, 0.01% NP40, 10% glycerol), containing 200 μM ligand (T₃, for TRβ, or estradiol, diethylstilbestrol, genistein or tamoxifen for ERα).
as §3
as §4, with “IC₅₀” for “IC50”

[5] = biological target: T3, hERα-LBD (ligand binding domain of …); assay: fluorescence polarization, labelled peptide 10 nM, hERα-LBD titrated, diethylstilbestrol present
Description: as §5, §3
as §4, with “IC₅₀” for “IC50”

[6] = biological target: T4, hTRβ-LBD (ligand binding domain of …); assay: fluorescence polarization, hTRβ-LBD titrated, T3 present; Table 3 prints ≧3 µM for this pair
Description: as §5, §3
as §4, with “IC₅₀” for “IC50”

[7] = biological target: T4, hTRβ-LBD (ligand binding domain of …); assay: fluorescence polarization, hTRβ-LBD titrated, T3 present; repeats Table 3
Description: as §5, §3
as §4, with “IC₅₀” for “IC50”

[8] = biological target: T3, hERα-LBD (ligand binding domain of …); assay: fluorescence polarization, labelled peptide 10 nM, hERα-LBD titrated, estradiol present
Description: as §5, §3
as §4, with “IC₅₀” for “IC50”

[9] = biological target: T4, hTRβ-LBD (ligand binding domain of …); assay: fluorescence polarization, fluorescein-labelled peptide 10 nM, hTRβ-LBD titrated, T3 present
Description: as §5, §3
as §4, with “IC₅₀” for “IC50”

[10] = biological target: T3, hERα-LBD (ligand binding domain of …); assay: fluorescence polarization, hERα-LBD titrated, estradiol present; repeats Table 4
Description: as §5, §3
as §4, with “IC₅₀” for “IC50”

[11] = TRβ, Darimont et al., Genes & Dev. (1998) 12:3343, read-out: Published Results: Kd app

Row | Kd [1] [nM] | Kd [2] [nM] | Kd [4] [nM] | Kd [5] [nM] | Molecule | Kd [3, 11] [nM] | further results
1 | 930 | 231 |  |  | CC[C@H](C)[C@H](NC(=O)[C@H](CCCCN)NC(=O)[C@H](Cc1c[nH]cn1)NC(=O)[C@H](CCCNC(=N)N)NC(=O)[C@H](C)NC(=O)[C@@H](NC(=O)[C@H](CC(C)C)NC(=O)[C@@H](N)CSCC(=O)Nc1ccc2c(c1)C(=O)OC21c2ccc(O)cc2Oc2cc(O)ccc21)[C@@H](C)O)C(=O)N[C@@H](CC(C)C)C(=O)N[C@@H](Cc1c[nH]cn1)C(=O)N[C@@H](CCCNC(=N)N)C(=O)N[C@@H](CC(C)C)C(=O)N[C@@H](CC(C)C)C(=O)N[C@@H](CCC(N)=O)C(=O)N[C@@H](CCC(=O)O)C(=O)NCC(=O)N[C@@H](CO)C(=O)N1CCC[C@H]1C(=O)N[C@@H](CO)C(=O)N[C@@H](CC(=O)O)C(=O)O [SRC1-2] |  | 
2 | 670 | 222 |  |  | CC[C@H](C)[C@H](NC(=O)[C@H](CCCCN)NC(=O)[C@H](Cc1c[nH]cn1)NC(=O)[C@H](CCCCN)NC(=O)[C@H](CCC(=O)O)NC(=O)[C@H](CCCCN)NC(=O)[C@H](CC(C)C)NC(=O)[C@@H](N)CSCC(=O)Nc1ccc2c(c1)C(=O)OC21c2ccc(O)cc2Oc2cc(O)ccc21)C(=O)N[C@@H](CC(C)C)C(=O)N[C@@H](Cc1c[nH]cn1)C(=O)N[C@@H](CCCNC(=N)N)C(=O)N[C@@H](CC(C)C)C(=O)N[C@@H](CC(C)C)C(=O)N[C@@H](CCC(N)=O)C(=O)N[C@@H](CC(=O)O)C(=O)N[C@@H](CO)C(=O)N[C@@H](CO)C(=O)N[C@@H](CO)C(=O)N1CCC[C@H]1C(=O)N[C@H](C(=O)O)C(C)C [SRC2-2] | 800 | Kd ([3]; hTRβ-LBD, reported value, read-out: Reported Kd): 1000 nM
3 | ≥ 3000 | 1420 |  |  | CC(C)C[C@H](NC(=O)[C@H](C)NC(=O)[C@H](CC(N)=O)NC(=O)[C@H](CCC(=O)O)NC(=O)[C@H](CCCCN)NC(=O)[C@H](CCCCN)NC(=O)[C@H](CCCCN)NC(=O)[C@@H](N)CSCC(=O)Nc1ccc2c(c1)C(=O)OC21c2ccc(O)cc2Oc2cc(O)ccc21)C(=O)N[C@@H](CC(C)C)C(=O)N[C@@H](CCCNC(=N)N)C(=O)N[C@@H](Cc1ccc(O)cc1)C(=O)N[C@@H](CC(C)C)C(=O)N[C@@H](CC(C)C)C(=O)N[C@@H](CC(=O)O)C(=O)N[C@@H](CCCCN)C(=O)N[C@@H](CC(=O)O)C(=O)N[C@@H](CC(=O)O)C(=O)N[C@H](C(=O)N[C@@H](CCCCN)C(=O)N[C@@H](CC(=O)O)C(=O)O)[C@@H](C)O [SRC2-3] | 3200 | 
4 |  |  |  |  | CC(C)C[C@H](NC(=O)[C@H](CCCCN)NC(=O)[C@H](CCCCN)NC(=O)[C@H](Cc1c[nH]cn1)NC(=O)CNC(=O)[C@H](CCCCN)NC(=O)[C@H](CO)NC(=O)[C@H](CCC(=O)O)NC(=O)[C@@H](N)CSCC(=O)Nc1ccc2c(c1)C(=O)OC21c2ccc(O)cc2Oc2cc(O)ccc21)C(=O)N[C@@H](CC(C)C)C(=O)N[C@@H](CCC(N)=O)C(=O)N[C@@H](CC(C)C)C(=O)N[C@@H](CC(C)C)C(=O)N[C@H](C(=O)N[C@@H](CS)C(=O)N[C@@H](CO)C(=O)N[C@@H](CO)C(=O)N[C@@H](CC(=O)O)C(=O)N[C@@H](CC(=O)O)C(=O)N[C@@H](CCCNC(=N)N)C(=O)O)[C@@H](C)O [SRC3-1] (H-C(Fluorescein(5-NHCOCH2))ESKGHKKLLQLLTCSSDDR-OH; N-terminus assumed) |  | Comparison of affinity for TRβ and ERα ([1]; Tables 3, 4 and 5): approximately the same affinity
5 |  |  | 2000 | 786 | C(5‑iodoacetamidofluorescein)KKKENALLRYLLDKDDTKD [SRC2-3 coregulator peptide] |  | Kd [6]: 3000 nM
6 |  |  | 250 | 1000 | C(5‑iodoacetamidofluorescein)ESKGHKKLLQLLTCSSDDR (The peptide has a second, internal Cys) [SRC3-1 coregulator peptide] |  | Kd [7]: 870 nM; Kd [8]: 160 nM; Kd [9]: 870 nM; Kd [10]: 160 nM
